Assays:
Assay in all cases: relative viability (nuclei count vs DMSO), 5 days (fraction); higher = more cells survive
[1] = compound: Cn1nnc2c(C(N)=O)ncn2c1=O [Temozolomide] + Nc1ncn([C@H]2C[C@H](O)[C@@H](CO)O2)c(=O)n1 [Decitabine] (partner 2 µM)
Procedure, shortened: (§1)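 Dosing by pin tool came one day after lung cancer cell lines were seeded in 1536-well plates, using either one drug or a fixed anchor-drug dose plus five library-drug doses (not always all listed) in √10 steps. After 5 days, nuclei were counted on 4× images. Relative viability is treated-well nuclei count divided by vehicle-well nuclei count, and values are medians of duplicate plates.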

AZD5582 + Pemetrexed = compound: C[C@@H](C(=O)N[C@@H](C1CCCCC1)C(=O)N2CCC[C@H]2C(=O)N[C@@H]3[C@@H](CC4=CC=CC=C34)OCC#CC#CCO[C@@H]5CC6=CC=CC=C6[C@@H]5NC(=O)[C@@H]7CCCN7C(=O)[C@H](C8CCCCC8)NC(=O)[C@H](C)NC)NC [AZD5582] + Nc1nc2[nH]cc(CCc3ccc(C(=O)N[C@@H](CCC(=O)O)C(=O)O)cc3)c2c(=O)[nH]1 [Pemetrexed] (partner 0.2 µM)
Procedure, shortened: as §1

AZD5582 + Palbociclib = compound: C[C@@H](C(=O)N[C@@H](C1CCCCC1)C(=O)N2CCC[C@H]2C(=O)N[C@@H]3[C@@H](CC4=CC=CC=C34)OCC#CC#CCO[C@@H]5CC6=CC=CC=C6[C@@H]5NC(=O)[C@@H]7CCCN7C(=O)[C@H](C8CCCCC8)NC(=O)[C@H](C)NC)NC [AZD5582] + CC(=O)c1c(C)c2cnc(Nc3ccc(N4CCNCC4)cn3)nc2n(C2CCCC2)c1=O [Palbociclib] (partner 0.5 µM)
Procedure, shortened: as §1

Temozolomide + Alpelisib = compound: Cn1nnc2c(C(N)=O)ncn2c1=O [Temozolomide] + Cc1nc(NC(=O)N2CCC[C@H]2C(N)=O)sc1-c1ccnc(C(C)(C)C(F)(F)F)c1 [Alpelisib] (partner 2 µM)
Procedure, shortened: as §1

Cell Line	relative viability ([1]; first compound 0.2 µM)	relative viability ([1]; first compound 0.6325 µM)	relative viability ([1]; first compound 2 µM)	relative viability ([1]; first compound 6.325 µM)	relative viability ([1]; first compound 20 µM)	relative viability (AZD5582 + Pemetrexed; first compound 0.001581 µM)	relative viability (AZD5582 + Pemetrexed; first compound 0.005 µM)	relative viability (AZD5582 + Pemetrexed; first compound 0.01581 µM)	relative viability (AZD5582 + Pemetrexed; first compound 0.05 µM)	relative viability (AZD5582 + Palbociclib; first compound 0.001581 µM)	relative viability (AZD5582 + Palbociclib; first compound 0.005 µM)	relative viability (AZD5582 + Palbociclib; first compound 0.01581 µM)	relative viability (AZD5582 + Palbociclib; first compound 0.05 µM)	relative viability (Temozolomide + Alpelisib; first compound 0.2 µM)	relative viability (Temozolomide + Alpelisib; first compound 0.6325 µM)	relative viability (Temozolomide + Alpelisib; first compound 2 µM)	relative viability (Temozolomide + Alpelisib; first compound 6.325 µM)	relative viability (Temozolomide + Alpelisib; first compound 20 µM)
NCI-H520	0.54	0.467	0.484	0.517	0.548	0.66	0.755	0.699	0.691	0.193	0.256	0.238	0.223	1.01	1.12	1.05	0.893	1.01
ABC-1	0.931	0.878	1.59	0.94	1.24					0.658	0.834	0.492	0.625	1.19	1.17	1.15	1.1	0.829
NCI-H1734	0.535	0.536	0.56	0.522	0.452	0.406	0.407	0.415	0.437	0.295	0.356	0.366	0.333	0.7	0.638	0.747	0.646	0.659
EKVX		0.295	0.236	0.34	0.221	0.382	0.39	0.344	0.375	0.378	0.425	0.298	0.393	0.335	0.935	0.856	0.886	0.656
NCI-H1915	0.246	0.266	0.277	0.268	0.223	0.437	0.428	0.506	0.497	0.521	0.536	0.502	0.544	1.05	1.02	0.905	0.625	0.335
NCI-H1395	0.707	0.716	0.849	0.657	0.717	0.852	0.964		1.13	0.578	0.688		0.76	1.15	1.07	1.13	1	1.06
HCC-366	0.297	0.386	0.384	0.304	0.337	0.119	0.155	0.15	0.152	0.347	0.319	0.322	0.43	0.337	0.391	0.456	0.462	0.358
HCC-44	1.04	0.991	0.963	0.951	0.966	0.587	0.615	0.614	0.402	0.906	0.931	1.02	0.928	0.811	0.842	0.868	0.786	0.717
COR-L 105	0.691	0.643	0.649	0.739	0.535	1.09	1.11	1	1.25	0.383	0.394	0.415	0.452	0.915	1.03	1.15	1.07	1.02
NCI-H1648		0.469	0.459	0.336	0.37	0.654	0.738		0.708	0.264	0.311		0.274					
NCI-H596	1.13	1.07	1.03	1.02	0.905	0.323		0.448	0.263					0.582	0.494	0.567	0.48	0.482
CAL-12T						0.792	0.811	1.11	0.967	0.2	0.225	0.309	0.159	1.11	1.22	1.14	1.06	1.18
NCI-H727		0.876	0.938	0.848	0.838					0.612	0.647	0.635	0.614	0.655	0.511	0.533	0.675	0.504
A549	0.314	0.184	0.289	0.246	0.207									0.828	0.738	0.69	0.738	0.773
Calu-6														1.03	0.989	0.984	0.973	0.977
NCI-H522	0.591	0.623	0.747	0.608	0.59	0.989	1.13	0.976	0.823	0.963	1.02	1.11	0.912					
NCI-H1563						0.682	0.742	0.586	0.861					0.957	1	1.01	0.861	0.94
IA-LM														0.956	0.716	0.811	0.716	0.711
NCI-H2342	0.737	0.771	0.666	0.676	0.803	0.79	0.747	0.756	0.791	0.492	0.518	0.491	0.54					

From the supplement of paper PMC10307832
